Measured values: publication PMC9179336, “Therapeutic Validation of GEF-H1 Using a De Novo Designed Inhibitor in Models of Retinal Disease” (Cells, 2022)
Where no end group is shown, it is not given here.

Legend:
[1] = system: RPE cells (TGFβ-stimulated); assay: RPE cell scratch wound migration assay; type: cell-based, porcine; conditions: 16 h
[2] = system: HEK293 cells; assay: Caspase 3/7 activity (Apo-ONE), HEK293 cells; type: cell-based; conditions: overnight, increasing concentrations
Method: (§1) HEK293 and MDCK cells were seeded in triplicate wells and incubated overnight with the indicated concentration of TAT-P5 or TAT-F1. The next day 30 μL of medium was removed from each well and incubated with 30μL of CytoTox-ONE (Promega) reagent for 40 min. Fluorescence was then measured to assess LDH release. To assess Caspase 3/7 activity cells were assayed using Apo-ONE Homogenous Caspase-3/7 assay (Promega) according to manufactures instructions.
(§2) We next tested whether the inhibitors are toxic to cultured cells. MDCK and HEK293 cells were incubated with increasing concentrations of either TAT-F1 or TAT-P5 overnight before analysis of LDH release as a measure of necrosis or Caspase 3/7 activity to assess induction of apoptosis (Figure S2).
(§3) MDCK (A) and HEK 293 (B) cells were incubated overnight with TAT-F1 or TAT-P5 at the concentrations indicated. Cell toxicity was then assessed by measuring caspase 3/7 activity in cell extracts and release of LDH into the medium. No significant cell toxicity was observed.
(§4) (1 picture or pasted object on this page, not shown here)

[3] = system: MDCK cells; assay: Caspase 3/7 activity (Apo-ONE), MDCK cells; type: cell-based; conditions: overnight, increasing concentrations
Method: as §1, §2, §3, §4

[4] = system: MDCK cells; assay: LDH release (CytoTox-ONE), MDCK cells; type: cell-based; conditions: overnight, increasing concentrations
Method: as §1, §2, §3, §4

[5] = system: HEK293 cells; assay: LDH release (CytoTox-ONE), HEK293 cells; type: cell-based; conditions: overnight, increasing concentrations
Method: as §1, §2, §3, §4

Sequence	RPE cell migration (scratch closure), in words [1]	cytotoxicity, Caspase 3/7 activity (apoptosis), HEK293 [2]	cytotoxicity, Caspase 3/7 activity (apoptosis), MDCK [3]	cytotoxicity, LDH release (necrosis), MDCK [4]	cytotoxicity, LDH release (necrosis), HEK293 [5]
GRKKRRQRRRPWQDYIAEVPRSDYDLRPTGQD [TAT-scr, scrambled version of TAT-P5, negative control peptide]	had no effect				
GRKKRRQRRRPWQGQEDYDRLRPASYPDTDVI [TAT-P5]		Neither assay revealed an increase in cytotoxicity	Neither assay revealed an increase in cytotoxicity	Neither assay revealed an increase in cytotoxicity	Neither assay revealed an increase in cytotoxicity
